Experimental findings from patent US11040031B2, “Pyrazole derivatives as MALT1 inhibitors” (Janssen Pharmaceutica NV, priority 2018, dated 2021) are described below.
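Note: fluorogenic LRSR-AMC substrate cleavage by MALT1, 50 min compound preincubation then 4 h reaction at RT, 11-point dilution from 30 µM, scaled between enzyme-free and untreated enzyme controls.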

This assay deals with T1, full-length MALT1 protein (Strep-MALT1(1-824)-His) (Homo sapiens, UniProt Q9UDY8).
T1 sequence (Q9UDY8 1-824): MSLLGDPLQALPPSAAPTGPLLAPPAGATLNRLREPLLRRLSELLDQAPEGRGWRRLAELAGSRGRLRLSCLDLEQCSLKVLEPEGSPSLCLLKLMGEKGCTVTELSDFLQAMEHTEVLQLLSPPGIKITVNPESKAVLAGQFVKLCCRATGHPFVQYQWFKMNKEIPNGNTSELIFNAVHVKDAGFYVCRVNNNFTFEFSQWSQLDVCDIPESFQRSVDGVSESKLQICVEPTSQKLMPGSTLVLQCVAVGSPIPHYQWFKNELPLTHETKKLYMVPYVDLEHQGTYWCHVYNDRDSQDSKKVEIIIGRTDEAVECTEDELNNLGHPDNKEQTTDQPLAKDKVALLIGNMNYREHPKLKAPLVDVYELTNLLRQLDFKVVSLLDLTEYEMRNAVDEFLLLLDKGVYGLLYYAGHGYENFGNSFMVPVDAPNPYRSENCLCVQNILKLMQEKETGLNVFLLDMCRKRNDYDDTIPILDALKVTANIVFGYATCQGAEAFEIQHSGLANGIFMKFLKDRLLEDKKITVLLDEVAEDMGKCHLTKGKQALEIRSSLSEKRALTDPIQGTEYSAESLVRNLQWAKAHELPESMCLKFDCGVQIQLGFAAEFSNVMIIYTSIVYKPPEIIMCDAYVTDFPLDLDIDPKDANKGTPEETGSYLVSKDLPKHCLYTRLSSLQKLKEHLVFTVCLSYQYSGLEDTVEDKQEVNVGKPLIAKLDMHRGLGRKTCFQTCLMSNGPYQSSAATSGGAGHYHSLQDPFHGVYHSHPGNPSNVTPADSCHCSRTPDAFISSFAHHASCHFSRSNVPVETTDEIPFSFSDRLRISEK
Description: biochemical.
In general, IC50 refers to the concentration that inhibits the measured activity by half. A low value points to greater potency in that assay. Compound `O=C(Nc1cnc(-n2nccn2)c(Cl)c1)c1cnn(-c2c(Cl)cc(F)cc2Cl)c1C(F)(F)F` [Cpd 93, N-(5-chloro-6-(2H-1,2,3-triazol-2-yl)pyridin-3-yl)-1-(2,6-dichloro-4-fluorophenyl)-5-(trifluoromethyl)-1H-pyrazole-4-carboxamide] came in with a concentration for half-maximal inhibition (IC50) of 457 nM. The result for `O=C(Nc1cnc(-n2nccn2)c(Cl)c1)c1cnn(-c2c(F)cc(F)cc2Cl)c1C(F)(F)F` [Cpd 94, 1-(2-chloro-4,6-difluorophenyl)-N-(5-chloro-6-(2H-1,2,3-triazol-2-yl)pyridin-3-yl)-5-(trifluoromethyl)-1H-pyrazole-4-carboxamide] reads 447 nM. Turning to `Cc1nc(Cl)ccc1-n1ncc(C(=O)Nc2cnc(-n3nccn3)c(C#N)c2)c1C(F)(F)F` [Cpd 95, 1-(6-chloro-2-methylpyridin-3-yl)-N-(5-cyano-6-(2H-1,2,3-triazol-2-yl)pyridin-3-yl)-5-(trifluoromethyl)-1H-pyrazole-4-carboxamide], the IC50 was found to be 316 nM. The value for `Cc1ccc(F)cc1-n1ncc(C(=O)Nc2cnc(-n3nccn3)c(Cl)c2)c1C(F)(F)F` [Cpd 96, N-(5-chloro-6-(2H-1,2,3-triazol-2-yl)pyridin-3-yl)-1-(5-fluoro-2-methylphenyl)-5-(trifluoromethyl)-1H-pyrazole-4-carboxamide] was 316 nM; that for `N#Cc1cc(NC(=O)c2cnn(-c3ccc(F)c(F)c3)c2C(F)(F)F)cnc1-n1nccn1` [Cpd 104, N-(5-cyano-6-(2H-1,2,3-triazol-2-yl)pyridin-3-yl)-1-(3,4-difluorophenyl)-5-(trifluoromethyl)-1H-pyrazole-4-carboxamide] was 245 nM. The value for `O=C(Nc1cnc(-n2nccn2)c(Cl)c1)c1cnn(-c2ncc(F)cc2Cl)c1C(F)(F)F` [Cpd 105, 1-(3-chloro-5-fluoropyridin-2-yl)-N-(5-chloro-6-(2H-1,2,3-triazol-2-yl)pyridin-3-yl)-5-(trifluoromethyl)-1H-pyrazole-4-carboxamide] was 537 nM; that for `O=C(Nc1cnc(-n2nccn2)c(Cl)c1)c1cnn(-c2ccc(F)c(Cl)c2)c1C(F)(F)F` [Cpd 108, 1-(3-chloro-4-fluorophenyl)-N-(5-chloro-6-(2H-1,2,3-triazol-2-yl)pyridin-3-yl)-5-(trifluoromethyl)-1H-pyrazole-4-carboxamide] was 776 nM; that for `N#Cc1cc(NC(=O)c2cnn(-c3ccc(F)c(Cl)c3)c2C(F)(F)F)cnc1-n1nccn1` [Cpd 109, 1-(3-chloro-4-fluorophenyl)-N-(5-cyano-6-(2H-1,2,3-triazol-2-yl)pyridin-3-yl)-5-(trifluoromethyl)-1H-pyrazole-4-carboxamide] was 427 nM. The value for `N#Cc1ccc(-n2ncc(C(=O)Nc3cnc(-n4nccn4)c(Cl)c3)c2C(F)(F)F)c(Cl)c1` [Cpd 110, 1-(2-chloro-4-cyanophenyl)-N-(5-chloro-6-(2H-1,2,3-triazol-2-yl)pyridin-3-yl)-5-(trifluoromethyl)-1H-pyrazole-4-carboxamide] was 123 nM. In the case of `O=C(Nc1cnc(-n2nccn2)c(Cl)c1)c1cnn(-c2ccc(F)cc2C(F)(F)F)c1C(F)(F)F` [Cpd 114, N-(5-chloro-6-(2H-1,2,3-triazol-2-yl)pyridin-3-yl)-1-(4-fluoro-2-(trifluoromethyl)phenyl)-5-(trifluoromethyl)-1H-pyrazole-4-carboxamide], the IC50 was 1000 nM. `N#Cc1cc(NC(=O)c2cnn(-c3ccc(F)cc3C(F)(F)F)c2C(F)(F)F)cnc1-n1nccn1` [Cpd 115, N-(5-cyano-6-(2H-1,2,3-triazol-2-yl)pyridin-3-yl)-1-(4-fluoro-2-(trifluoromethyl)phenyl)-5-(trifluoromethyl)-1H-pyrazole-4-carboxamide] came in with a half-maximal inhibitory concentration (IC50) of 363 nM. On to `COC(C)c1ccccc1-n1ncc(C(=O)Nc2cnc(-n3nccn3)c(Cl)c2)c1C(F)(F)F` (centres unmarked) [Cpd 118, N-(5-Chloro-6-(2H-1,2,3-triazol-2-yl)pyridin-3-yl)-1-(2-(1-methoxyethyl)phenyl)-5-(trifluoromethyl)-1H-pyrazole-4-carboxamide], for which the IC50 is 2950 nM.

`O=C(Nc1cnc(-n2nccn2)c(Cl)c1)c1cnn(-c2ccc(F)nc2)c1C(F)(F)F` [Cpd 121, N-(5-chloro-6-(2H-1,2,3-triazol-2-yl)pyridin-3-yl)-1-(6-fluoropyridin-3-yl)-5-(trifluoromethyl)-1H-pyrazole-4-carboxamide]: inhibition was half-maximal at 1170 nM (IC50). The value for `CNc1ccc(-n2ncc(C(=O)Nc3cnc(-n4nccn4)c(Cl)c3)c2C(F)(F)F)cn1` [Cpd 122, N-(5-chloro-6-(2H-1,2,3-triazol-2-yl)pyridin-3-yl)-1-(6-(methylamino)pyridin-3-yl)-5-(trifluoromethyl)-1H-pyrazole-4-carboxamide] was 1320 nM.

The compound `N#Cc1cc(NC(=O)c2cnn(-c3ccc(F)nc3)c2C(F)(F)F)cnc1-n1nccn1` [Cpd 123, N-(5-cyano-6-(2H-1,2,3-triazol-2-yl)pyridin-3-yl)-1-(6-(fluoro)pyridin-3-yl)-5-(trifluoromethyl)-1H-pyrazole-4-carboxamide] displayed an IC50 of 794 nM. The value for `CNc1ccc(-n2ncc(C(=O)Nc3cnc(-n4nccn4)c(C#N)c3)c2C(F)(F)F)cn1` [Cpd 124, N-(5-cyano-6-(2H-1,2,3-triazol-2-yl)pyridin-3-yl)-1-(6-(methylamino)pyridin-3-yl)-5-(trifluoromethyl)-1H-pyrazole-4-carboxamide] was 1200 nM; that for `Nc1ccc(-n2ncc(C(=O)Nc3cnc(-n4nccn4)c(Cl)c3)c2C(F)(F)F)cn1` [Cpd 125, 1-(6-aminopyridin-3-yl)-N-(5-chloro-6-(2H-1,2,3-triazol-2-yl)pyridin-3-yl)-5-(trifluoromethyl)-1H-pyrazole-4-carboxamide] was 1910 nM. The value for `CN1CCCc2c1cccc2-n1ncc(C(=O)Nc2cnc(-n3nccn3)c(C#N)c2)c1C(F)(F)F` [Cpd 127, N-(5-cyano-6-(2H-1,2,3-triazol-2-yl)pyridin-3-yl)-1-(1-methyl-1,2,3,4-tetrahydroquinolin-5-yl)-5-(trifluoromethyl)-1H-pyrazole-4-carboxamide] was 372 nM. The value for `N#Cc1cc(NC(=O)c2cnn(-c3cccc(N)n3)c2C(F)(F)F)cnc1-n1nccn1` [Cpd 134, 1-(6-aminopyridin-2-yl)-N-(5-cyano-6-(2H-1,2,3-triazol-2-yl)pyridin-3-yl)-5-(trifluoromethyl)-1H-pyrazole-4-carboxamide] was 263 nM. `N#Cc1cc(F)ccc1-n1ncc(C(=O)Nc2cnc(-n3nccn3)c(C#N)c2)c1C(F)(F)F` [Cpd 135, 1-(2-cyano-4-fluorophenyl)-N-(5-cyano-6-(2H-1,2,3-triazol-2-yl)pyridin-3-yl)-5-(trifluoromethyl)-1H-pyrazole-4-carboxamide] showed an IC50 of 525 nM.

`N#Cc1cc(F)ccc1-n1ncc(C(=O)Nc2cnc(-n3nccn3)c(Cl)c2)c1C(F)(F)F` [Cpd 136, N-(5-chloro-6-(2H-1,2,3-triazol-2-yl)pyridin-3-yl)-1-(2-cyano-4-fluorophenyl)-5-(trifluoromethyl)-1H-pyrazole-4-carboxamide] showed an IC50 of 759 nM.

Turning to `CS(=O)(=O)c1ccccc1-n1ncc(C(=O)Nc2cnc(-n3nccn3)c(Cl)c2)c1C(F)(F)F` [Cpd 138, N-(5-chloro-6-(2H-1,2,3-triazol-2-yl)pyridin-3-yl)-1-(2-(methylsulfonyl)phenyl)-5-(trifluoromethyl)-1H-pyrazole-4-carboxamide], the 50% inhibitory concentration (IC50) turned out to be 5490 nM. The value for `O=C(Nc1cnc(-n2nccn2)c(Cl)c1)c1cnn(-c2ccc(F)c(N3CC(O)C3)n2)c1C(F)(F)F` [Cpd 151, N-(5-chloro-6-(2H-1,2,3-triazol-2-yl)pyridin-3-yl)-1-(5-fluoro-6-(3-hydroxyazetidin-1-yl)pyridin-2-yl)-5-(trifluoromethyl)-1H-pyrazole-4-carboxamide] was 2400 nM; that for `N#Cc1cc(NC(=O)c2cnn(-c3ccc(F)c(N4CC(O)C4)n3)c2C(F)(F)F)cnc1-n1nccn1` [Cpd 152, N-(5-cyano-6-(2H-1,2,3-triazol-2-yl)pyridin-3-yl)-1-(5-fluoro-6-(3-hydroxyazetidin-1-yl)pyridin-2-yl)-5-(trifluoromethyl)-1H-pyrazole-4-carboxamide] was 832 nM. The result for `Cc1c[n+]([O-])ccc1-n1ncc(C(=O)Nc2cnc(-n3nccn3)c(Cl)c2)c1C(F)(F)F` [Cpd 153, 4-(4-((5-chloro-6-(2H-1,2,3-triazol-2-yl)pyridin-3-yl)carbamoyl)-5-(trifluoromethyl)-1H-pyrazol-1-yl)-3-methylpyridine 1-oxide] reads 4900 nM; that for `Cc1cnc(Cl)cc1-n1ncc(C(=O)Nc2cnc(-n3nccn3)c(Cl)c2)c1C(F)(F)F` [Cpd 154, 1-(2-chloro-5-methyl-4-pyridyl)-N-[5-chloro-6-(triazol-2-yl)-3-pyridyl]-5-(trifluoromethyl)pyrazole-4-carboxamide], 955 nM.
